Experimental data taken from patent publication US20140081017A1, “Histone Deacetylase Inhibitors for Enhancing Activity of Antifungal Agents” (METHYLGENE INC., priority 2012, published 2014).
Converted amounts (≈) assume the structure as drawn. Read-outs that look alike come from different tables or passages of the source.

How the values were obtained:
Candida albicans = assay: Minimal Inhibitory Concentration (MIC) assay, broth microdilution per CLSI; format: cell-based; settings: Candida albicans, read-out: Minimum Inhibitory Concentrations against Yeast Isolates, Candida albicans;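 note: two read times 24 hr and 48 hr of incubation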
Outline: (§1)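 Yeasts incubated ~24-48 hr at 35°C in MOPS-buffered RPMI (0.165 M, pH 7.0) containing DMSO-dissolved compound, following CLSI microdilution. Inoculum: 0.5 McFarland, diluted 1:100. MIC read visually as lowest concentration inhibiting growth (prominent-decrease endpoint for fluconazole).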

Candida glabrata = assay: as above; format: cell-based; settings: Nakaseomyces glabratus, read-out: Minimum Inhibitory Concentrations against Yeast Isolates, Candida glabrata;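 note: two read times 24 hr and 48 hr of incubation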
Outline: as §1

Candida parapsilosis = assay: as above; format: cell-based; settings: Lodderomyces parapsilosis, read-out: Minimum Inhibitory Concentrations against Yeast Isolates, Candida parapsilosis;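 note: two read times 24 hr and 48 hr of incubation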
Outline: as §1

C. glabrata = assay: Checkerboard FIC assay in combination with fluconazole (MIC alone and in combination, FICI); format: cell-based, Candida glabrata; settings: for FICI of combination resulting in fluconazole MIC of: 2 ug/mL / FICI of combination resulting in fluconazole MIC of: 4 ug/mL / FICI of combination resulting in fluconazole MIC of: 8 ug/mL: FICI calculated using a fluconazole MIC of 16 μg/mL; for FICI of combination resulting in fluconazole MIC of: 2 ug/mL (value in parenthesis) / FICI of combination resulting in fluconazole MIC of: 4 ug/mL (value in parenthesis) / FICI of combination resulting in fluconazole MIC of: 8 ug/mL (value in parenthesis): FICI using a fluconazole MIC of 128 μg/mL; for MIC: Nakaseomyces glabratus; for Concentration of Methylgene compound to synergize fluconazole MIC to 2 ug/mL / Concentration of Methylgene compound to synergize fluconazole MIC to 4 ug/mL / Concentration of Methylgene compound to synergize fluconazole MIC to 8 ug/mL: in combination with fluconazole; for Concentration of Methylgene compound to synergize fluconazole MIC to 2 ug/mL: fluconazole MIC lowered to 2 ug/mL; for Concentration of Methylgene compound to synergize fluconazole MIC to 4 ug/mL: fluconazole MIC lowered to 4 ug/mL; for Concentration of Methylgene compound to synergize fluconazole MIC to 8 ug/mL: fluconazole MIC lowered to 8 ug/mL; for Multiple of compound MIC to synergize fluconazole MIC to 2 ug/mL / Multiple of compound MIC to synergize fluconazole MIC to 4 ug/mL / Multiple of compound MIC to synergize fluconazole MIC to 8 ug/mL: concentration in combination as multiple of the compound's MIC alone; for Multiple of compound MIC to synergize fluconazole MIC to 2 ug/mL: fluconazole MIC 2 ug/mL; for Multiple of compound MIC to synergize fluconazole MIC to 4 ug/mL: fluconazole MIC 4 ug/mL; for Multiple of compound MIC to synergize fluconazole MIC to 8 ug/mL: fluconazole MIC 8 ug/mL
Outline: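 C. glabrata was tested by CLSI broth microdilution checkerboard, crossing 2-fold dilutions of compound with 2-fold dilutions of fluconazole. The medium was RPMI with 0.165 M MOPS at pH 7.0, inoculated from a 0.5 McFarland suspension diluted 1:100, then incubated about 48 h at 35 °C. Single-agent MICs gave the FIC and FICI values.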

[1] = 24 hr reading (first value of cell 24 hr/48 hr)
[2] = 48 hr reading (second value of cell 24 hr/48 hr)
[3] = MIC of the example compound alone against C. glabrata in the checkerboard assay, approximately 48 hr, read-out: Methylgene MIC
[4] = test compound alone, C. glabrata, approx. 48 hr at 35° C., read-out: Compound MIC

Compound | MIC (Candida albicans; [1]) | MIC (Candida albicans; [2]) | MIC (Candida glabrata; [1]) | MIC (Candida glabrata; [2]) | MIC (Candida parapsilosis; [1]) | MIC (Candida parapsilosis; [2]) | FICI of combination resulting in fluconazole MIC of: 2 ug/mL (C. glabrata; C. glabrata) | FICI of combination resulting in fluconazole MIC of: 4 ug/mL (C. glabrata; C. glabrata) | FICI of combination resulting in fluconazole MIC of: 8 ug/mL (C. glabrata; C. glabrata) | FICI of combination resulting in fluconazole MIC of: 2 ug/mL (value in parenthesis) (C. glabrata; C. glabrata) | FICI of combination resulting in fluconazole MIC of: 4 ug/mL (value in parenthesis) (C. glabrata; C. glabrata) | FICI of combination resulting in fluconazole MIC of: 8 ug/mL (value in parenthesis) (C. glabrata; C. glabrata) | MIC (C. glabrata; [3]) | MIC (C. glabrata; [4]) | Concentration of Methylgene compound to synergize fluconazole MIC to 2 ug/mL (C. glabrata; C. glabrata) | Concentration of Methylgene compound to synergize fluconazole MIC to 4 ug/mL (C. glabrata; C. glabrata) | Concentration of Methylgene compound to synergize fluconazole MIC to 8 ug/mL (C. glabrata; C. glabrata) | Multiple of compound MIC to synergize fluconazole MIC to 2 ug/mL (C. glabrata) | Multiple of compound MIC to synergize fluconazole MIC to 4 ug/mL (C. glabrata) | Multiple of compound MIC to synergize fluconazole MIC to 8 ug/mL (C. glabrata)
O=C(Cc1ccc(CCC(O)Cc2ccccc2)cc1)NO (stereo not drawn) [Example 57, N-hydroxy-2-(4-(3-hydroxy-4-phenylbutyl)phenyl)acetamide] | > 64 µg/mL | > 64 µg/mL | 16 µg/mL (≈ 53.4 µM) | > 64 µg/mL | > 64 µg/mL | > 64 µg/mL | 0.563 | 0.625 | 0.500 | 0.516 | 0.531 | 0.313 | > 16 µg/mL | > 16 µg/mL | 16 µg/mL | 16 µg/mL | 8 µg/mL | – | – | –
COc1ccc(CCCCc2ccc(CC(=O)NO)cc2)cc1OC [Example 13, 2-(4-(4-(3,4-dimethoxyphenyl)butyl)phenyl)-N-hydroxyacetamide] | 8 µg/mL (≈ 23.3 µM) | 16 µg/mL (≈ 46.6 µM) | 2 µg/mL (≈ 5.82 µM) | 4 µg/mL (≈ 11.6 µM) | 16 µg/mL (≈ 46.6 µM) | > 16 µg/mL | 0.313 | 0.375 | 0.375 | 0.266 | 0.281 | 0.188 | 4 µg/mL | 4 µg/mL | 1 µg/mL | 1 µg/mL | 0.5 µg/mL | (¼x) | (¼x) | (⅛x)
COCCOCCOCC(=O)Nc1cccc(CCCCc2ccc(CC(=O)NO)cc2)c1 [Example 40, N-hydroxy-2-(4-(4-(3-(2-(2-(2-methoxyethoxy)ethoxy)acetamido)phenyl)butyl)phenyl)acetamide] | > 64 µg/mL | > 64 µg/mL | 2 µg/mL (≈ 4.36 µM) | 32 µg/mL (≈ 69.8 µM) | > 64 µg/mL | > 64 µg/mL | 0.313 | 0.250 | 0.375 | 0.266 | 0.156 | 0.188 | 16 µg/mL | 16 µg/mL | 4 µg/mL | 2 µg/mL | 2 µg/mL | (¼x) | (⅛x) | (⅛x)
O=C(Cc1ccc(CCCCc2ccc(C(=O)N3CCN(C/C=C/c4ccccc4)CC3)cc2)cc1)NO [Example 20, (E)-2-(4-(4-(4-(4-cinnamylpiperazine-1-carbonyl)phenyl)butyl)phenyl)-N-hydroxyacetamide] | > 8 µg/mL | > 8 µg/mL | 2 µg/mL (≈ 3.91 µM) | 2 µg/mL (≈ 3.91 µM) | > 8 µg/mL | > 8 µg/mL | 0.563 | 0.375 | 0.500 | 0.516 | 0.281 | 0.313 | 1 µg/mL | 1 µg/mL | 0.5 µg/mL | 0.25 µg/mL | 0.25 µg/mL | (½x) | (¼x) | (¼x)
Cn1ccc2cc(CCCCc3ccc(CC(=O)NO)cc3)ccc21 [Example 6, N-hydroxy-2-(4-(4-(1-methyl-1H-indol-5-yl)butyl)phenyl) acetamide] | 0.5 µg/mL (≈ 1.49 µM) | 0.5 µg/mL (≈ 1.49 µM) | 0.25 µg/mL (≈ 0.743 µM) | 0.5 µg/mL (≈ 1.49 µM) | > 4 µg/mL | > 4 µg/mL | 0.313 | 0.245 | 0.370 | 0.266 | 0.151 | 0.183 | 1 µg/mL | 1 µg/mL | 0.25 µg/mL | 0.12 µg/mL | 0.12 µg/mL | (¼x) | (⅛x) | (⅛x)
Nc1ccc(CCCCc2ccc(CC(=O)NO)cc2)cc1 [Example 31, 2-(4-(4-(4-aminophenyl)butyl)phenyl)-N-hydroxyacetamide] | > 16 µg/mL | > 16 µg/mL | > 8 µg/mL | > 8 µg/mL | > 16 µg/mL | > 16 µg/mL | 0.375 | 0.500 | 0.625 | 0.266 | 0.281 | 0.188 | 4 µg/mL | 4 µg/mL | 1 µg/mL | 1 µg/mL | 0.5 µg/mL | (¼x) | (¼x) | (⅛x)
